Patent US9498533B2, “Drug delivery compositions and methods” (Board of Regents of the University of Nebraska, priority 2011, dated 2016)

Tests used:
[1] = carboxylic groups; cited from earlier work
[2] = system: breast cancer cells that overexpress HER2; experiment: HER2 expression and Akt activation in breast cancer cells; assay type: cell-based
[3] = system: MCF-7 human breast cancer cells; experiment: In vitro cytotoxicity, MTT assay; assay type: cell-based; conditions: n = 4
Method: Cytotoxicity of DOX-loaded cl-micelles was assessed in MCF-7 cells by a standard MTT assay as described (Kim et al. (2009) J. Control Release, 138:197-204). Briefly, cells were seeded in a 96-well microtiter plates with 5,000 cells per well and allowed to adhere for 24 hours prior to the assay. Cells were exposed to various doses (0-50 μg/ml on DOX basis) of DOX alone, polymer micelles alone, and DOX-loaded cl-micelles for 24 hours at 37° C., followed by washing with PBS, and maintaining in DMEM medium with 10% FBS for additional 72 hours. 25 μl of MTT indicator dye (5 mg/ml) was added to each well and the cells were incubated for 2 hours at 37° C. in the dark. 100 μl of 50% DMF-20% SDS solution was added to each well and kept overnight at 37° C. Absorption was measured at 570 nm in a microplate reader (SpectraMax® M5, Molecular Devices Co., USA) using wells without cells as blanks. […]

For N[C@@H](CCC(=O)O)C(=O)O [glutamic acid], the pKa [1] is listed as “ca. 4.4”.

In the case of C=CCNC1=C2C[C@@H](C)C[C@H](OC)[C@H](O)[C@@H](C)/C=C(\C)[C@H](OC(N)=O)[C@@H](OC)/C=C\C=C(/C)C(=O)NC(=CC1=O)C2=O [17-AAG, 17-N-allylamino-17-demethoxygeldanamycin], the Akt activation [2] is reported as “inhibited Ala activation” and the HER2 expression [2] is reported as “downregulation of HER2 expression”.

For COc1cccc2c1C(=O)c1c(O)c3c(c(O)c1C2=O)C[C@@](O)(C(=O)CO)C[C@@H]3O[C@H]1C[C@H](N)[C@H](O)[C@H](C)O1.Cl [Free DOX, Doxorubicin hydrochloride], the “IC50 (DOX equivalents)” value ([3]; MCF-7, 6 hours incubation) was 0.283 ± 0.049 µg/mL and the “IC50 (DOX equivalents)” value ([3]; MCF-7, 24 hours incubation) was 0.046 ± 0.021 µg/mL.
